Converted amounts (≈) assume the structure as drawn. Like-named read-outs stand apart in the source and are kept apart here. Where a SMILES comes first, the peptide text is derived from it.
Columns and labels:
C. albicans ATCC 10231 = system: C. albicans ATCC 10231
Protocol: (§1) Tools and materials were sterilized in an autoclave for 15 min at 121°C. Fungal culture was grown in agar media (Potato Dextrose agar) by picking some fungal colony using an inoculating loop, followed by incubation at 30°C for 24–48 h. Fungal culture was then suspended in liquid media (Potato Dextrose Broth). The suspended fungal culture was then incubated for 24–48 h at 30°C. The suspended fungal culture was then incubated at 30°C for 24 h and standardized equal to 0.5 Mc Farland (2 × 10^8 CFU ml^−1). The culture was diluted into the concentration of 5 × 10^5 CFU ml^−1.
(§2) Six tetrapeptides and six cyclotetrapeptides were dissolved in DMSO 2% with a concentration of 1 µg mL^−1. Each solution was dissolved gradually. Subsequently, 12 sample solutions, ciprofloxacin, nystatin, ketoconazole and DMSO 2% were incubated on a 96-well microplate at 37°C for 18 h. The result was interpreted using a spectrophotometer, with a wavelength of 600 nm. MIC was measured as the percentage of microbial inhibition and cell death.

[1] = head-to-tail lactamisation of linear tetrapeptide (N-terminal Pro amine + C-terminal Ile acid), HATU (2 equiv), DIPEA (3 equiv); conditions: the molecule shown is the open-chain precursor; 12-membered ring; CH2Cl2 (with ca. 0.2-0.5% DMF); 0.4 mM; 25.0 °C; 1.5 h
E. coli ATCC 11229 = assay: microbe, parasite or virus in culture; conditions: for minimum inhibitory concentration (MIC) E. coli ATCC 11229: ATCC 11229, 18 h
Protocol: as §1, with “Bacterial” for “Fungal”, “(Mueller Hinton” for “(Potato Dextrose”, “bacterial” for “fungal”, “37°C” for “30°C”, “24” for “24–48”, “bacterial” for “fungal culture was then incubated for 24–48 h at 30°C. The suspended fungal”
as §2

K. pneumonia ATCC 2357 = assay: microbe, parasite or virus in culture; conditions: for minimum inhibitory concentration (MIC) K. pneumonia ATCC 2357: ATCC 2357, 18 h
Protocol: as §1, with “Bacterial” for “Fungal”, “(Mueller Hinton” for “(Potato Dextrose”, “bacterial” for “fungal”, “37°C” for “30°C”, “24” for “24–48”, “bacterial” for “fungal culture was then incubated for 24–48 h at 30°C. The suspended fungal”
as §2

S. aureus ATCC 6538 = assay: microbe, parasite or virus in culture
Protocol: as §1, with “Bacterial” for “Fungal”, “(Mueller Hinton” for “(Potato Dextrose”, “bacterial” for “fungal”, “37°C” for “30°C”, “24” for “24–48”, “bacterial” for “fungal culture was then incubated for 24–48 h at 30°C. The suspended fungal”
as §2

B. cereus ATCC 11778 = assay: microbe, parasite or virus in culture
Protocol: as §1, with “Bacterial” for “Fungal”, “(Mueller Hinton” for “(Potato Dextrose”, “bacterial” for “fungal”, “37°C” for “30°C”, “24” for “24–48”, “bacterial” for “fungal culture was then incubated for 24–48 h at 30°C. The suspended fungal”
as §2

T. mentagrophyte = assay: microbe, parasite or virus in culture; conditions: 18 h
Protocol: as §1, §2

[2] = Potato Dextrose Broth, 5 × 10^5 CFU ml^−1, DMSO 2%, 96-well microplate, 37°C, 18 h, read at 600 nm, single experiment
[3] = Mueller Hinton Broth, 5 × 10^5 CFU ml^−1, DMSO 2%, 96-well microplate, 37°C, 18 h, read at 600 nm, single experiment

Structure (SMILES)	ring closure, isolated yield [1]	minimum inhibitory concentration (MIC) E. coli ATCC 11229 (E. coli ATCC 11229)	minimum inhibitory concentration (MIC) K. pneumonia ATCC 2357 (K. pneumonia ATCC 2357)	minimum inhibitory concentration (MIC) S. aureus ATCC 6538 (S. aureus ATCC 6538; ATCC 6538, 18 h)	minimum inhibitory concentration (MIC) C. albicans ATCC 10231 (C. albicans ATCC 10231; ATCC 10231, 18 h)	minimum inhibitory concentration (MIC) T. mentagrophyte (T. mentagrophyte)	minimum inhibitory concentration (MIC) B. cereus ATCC 11778 (B. cereus ATCC 11778; ATCC 11778, 18 h)	also measured
C[C@@H]1[C@H](O)[C@@H](C)/C=C/C=C/CC/C=C/C=C/C=C/C=C/C(O[C@H]2O[C@H](C)[C@@H](O)[C@H](N)[C@@H]2O)CC2O[C@](O)(CC(O)C(O)CCC(O)CC(O)CC(O)CC(=O)O[C@H]1C)CC(O)C2C(=O)O (stereo partly drawn) [Nystatin, reference compound]								minimum inhibitory concentration (MIC) C. albicans ATCC 10231 (C. albicans ATCC 10231; [2]): 4.88 µg/mL (≈ 5.27 µM)
CC[C@H](C)[C@H](NC(=O)[C@@H]1CCCN1C(=O)[C@H](CC(C)C)NC(=O)[C@@H]1CCCN1)C(=O)O [H-Pro-Leu-Pro-Ile-OH]	53%							
CC[C@H](C)[C@H](NC(=O)[C@H](C)NC(=O)[C@H](CC(C)C)NC(=O)[C@@H]1CCCN1)C(=O)O [PLAI] (H-PLAI-OH)		>1000 µg/mL	250 µg/mL (≈ 606 µM)	>1000 µg/mL	>1000 µg/mL			
CC[C@H](C)[C@@H]1NC(=O)[C@H](Cc2ccccc2)NC(=O)[C@H](CCCCN)NC(=O)[C@@H]2CCCN2C1=O [c-PKFI, cyclo-(pro-lys-phe-ile)] (cyclo(PKFI))		31.25 µg/mL (≈ 64.3 µM)	250 µg/mL (≈ 515 µM)			125 µg/mL (≈ 257 µM)		minimum inhibitory concentration (MIC) B. cereus ATCC 11778 (B. cereus ATCC 11778; [3]): 62.5 µg/mL (≈ 129 µM); minimum inhibitory concentration (MIC) S. aureus ATCC 6538 (S. aureus ATCC 6538; [3]): 62.5 µg/mL (≈ 129 µM); minimum inhibitory concentration (MIC) C. albicans ATCC 10231 (C. albicans ATCC 10231; [2]): 62.50 µg/mL (≈ 129 µM)
CC[C@H](C)[C@@H]1NC(=O)[C@H](C)NC(=O)[C@H](CCCCN)NC(=O)[C@@H]2CCCN2C1=O [c-PKAI, cyclo-(pro-lys-ala-ile)] (cyclo(PKAI))		62.50 µg/mL (≈ 153 µM)	250 µg/mL (≈ 610 µM)	125 µg/mL (≈ 305 µM)	125 µg/mL (≈ 305 µM)	125 µg/mL (≈ 305 µM)	125 µg/mL (≈ 305 µM)	
CC[C@H](C)[C@@H]1NC(=O)[C@H](Cc2ccccc2)NC(=O)[C@H](CC(C)C)NC(=O)[C@@H]2CCCN2C1=O [c-PLFI, cyclo-(pro-leu-phe-ile)] (cyclo(PLFI))		125 µg/mL (≈ 266 µM)	250 µg/mL (≈ 531 µM)	500 µg/mL (≈ 1060 µM)	500 µg/mL (≈ 1060 µM)	250 µg/mL (≈ 531 µM)	125 µg/mL (≈ 266 µM)	
O=C(O)c1cn(C2CC2)c2cc(N3CCNCC3)c(F)cc2c1=O [Ciprofloxacin, reference compound]								MIC (B. cereus ATCC 11778; Bacillus cereus, ATCC11778, 18 h, read-out: minimum inhibitory concentration (MIC) B. cereus ATCC 11778): 0.195 µg/mL (≈ 0.589 µM); MIC (E. coli ATCC 11229; Escherichia coli, ATCC11229, 18 h, read-out: minimum inhibitory concentration (MIC) E. coli ATCC 11229): 1.56 µg/mL (≈ 4.71 µM); MIC (K. pneumonia ATCC 2357; Klebsiella pneumoniae, ATCC2357, 18 h, read-out: minimum inhibitory concentration (MIC) K. pneumonia ATCC 2357): 0.391 µg/mL (≈ 1.18 µM); MIC (S. aureus ATCC 6538; Staphylococcus aureus, ATCC6538, 18 h, read-out: minimum inhibitory concentration (MIC) S. aureus ATCC 6538): 0.098 µg/mL (≈ 0.296 µM)
CC(=O)N1CCN(c2ccc(OCC3COC(Cn4ccnc4)(c4ccc(Cl)cc4Cl)O3)cc2)CC1 (stereo not drawn) [Ketokonazole, reference compound]								MIC (T. mentagrophyte; Trichophyton mentagrophytes, read-out: minimum inhibitory concentration (MIC) T. mentagrophyte): 312 µg/mL (≈ 588 µM)
CC[C@H](C)[C@H](NC(=O)[C@H](Cc1ccccc1)NC(=O)[C@H](CC(C)C)NC(=O)[C@@H]1CCCN1)C(=O)O [H-Pro-Leu-Phe-Ile-OH]	46%							
CC[C@H](C)[C@H](NC(=O)[C@H](C)NC(=O)[C@H](CC(C)C)NC(=O)[C@@H]1CCCN1)C(=O)O [H-Pro-Leu-Ala-Ile-OH]	70%							
CC[C@H](C)[C@H](NC(=O)[C@H](Cc1ccccc1)NC(=O)[C@H](CCCCN)NC(=O)[C@@H]1CCCN1)C(=O)O [PKFI] (H-PKFI-OH)		250 µg/mL (≈ 496 µM)	500 µg/mL (≈ 993 µM)	250 µg/mL (≈ 496 µM)	250 µg/mL (≈ 496 µM)	500 µg/mL (≈ 993 µM)	250 µg/mL (≈ 496 µM)	
CC[C@H](C)[C@H](NC(=O)[C@@H]1CCCN1C(=O)[C@H](CC(C)C)NC(=O)[C@@H]1CCCN1)C(=O)O [PLPI] (H-PLPI-OH)		500 µg/mL (≈ 1140 µM)	500 µg/mL (≈ 1140 µM)	500 µg/mL (≈ 1140 µM)	>1000 µg/mL	500 µg/mL (≈ 1140 µM)	250 µg/mL (≈ 570 µM)	
CC[C@H](C)[C@H](NC(=O)[C@H](Cc1ccccc1)NC(=O)[C@H](CC(C)C)NC(=O)[C@@H]1CCCN1)C(=O)O [PLFI] (H-PLFI-OH)		>1000 µg/mL	>1000 µg/mL	>1000 µg/mL	>1000 µg/mL		500 µg/mL (≈ 1020 µM)	
CC[C@H](C)[C@@H]1NC(=O)[C@H](C(C)C)NC(=O)[C@H](CC(C)C)NC(=O)[C@@H]2CCCN2C1=O [c-PLVI, cyclo-(pro-leu-val-ile)] (cyclo(PLVI))		125 µg/mL (≈ 296 µM)	250 µg/mL (≈ 592 µM)	500 µg/mL (≈ 1180 µM)	500 µg/mL (≈ 1180 µM)	62.50 µg/mL (≈ 148 µM)	125 µg/mL (≈ 296 µM)	
CC[C@H](C)[C@H](NC(=O)[C@H](C)NC(=O)[C@H](CCCCNC(=O)OC(C)(C)C)NC(=O)[C@@H]1CCCN1)C(=O)O [H-Pro-Lys(Boc)-Ala-Ile-OH]	43%							
CC[C@H](C)[C@@H]1NC(=O)[C@@H]2CCCN2C(=O)[C@H](CC(C)C)NC(=O)[C@@H]2CCCN2C1=O [c-PLPI, cyclo(pro-leu-pro-ile)] (cyclo(PLPI))		125 µg/mL (≈ 297 µM)	250 µg/mL (≈ 594 µM)	250 µg/mL (≈ 594 µM)	>1000 µg/mL			
CC[C@H](C)[C@H](NC(=O)[C@H](Cc1ccccc1)NC(=O)[C@H](CCCCNC(=O)OC(C)(C)C)NC(=O)[C@@H]1CCCN1)C(=O)O [H-Pro-Lys(Boc)-Phe-Ile-OH]	50%							
CC[C@H](C)[C@H](NC(=O)[C@H](C)NC(=O)[C@H](CCCCN)NC(=O)[C@@H]1CCCN1)C(=O)O [PKAI] (H-PKAI-OH)		250 µg/mL (≈ 585 µM)	500 µg/mL (≈ 1170 µM)	500 µg/mL (≈ 1170 µM)	250 µg/mL (≈ 585 µM)	500 µg/mL (≈ 1170 µM)	500 µg/mL (≈ 1170 µM)	
CC[C@H](C)[C@H](NC(=O)[C@@H](NC(=O)[C@H](CC(C)C)NC(=O)[C@@H]1CCCN1)C(C)C)C(=O)O [H-Pro-Leu-Val-Ile-OH]	52%							
CC[C@H](C)[C@H](NC(=O)[C@@H](NC(=O)[C@H](CC(C)C)NC(=O)[C@@H]1CCCN1)C(C)C)C(=O)O [PLVI] (H-PLVI-OH)		500 µg/mL (≈ 1130 µM)	500 µg/mL (≈ 1130 µM)	>1000 µg/mL	>1000 µg/mL		500 µg/mL (≈ 1130 µM)	

Source: paper PMC8074941, “Synthesis of cyclotetrapeptide analogues of c-PLAI and evaluation of their antimicrobial properties” (Royal Society Open Science, 2021)
